{
  "source": "patent US20260242390A1",
  "about": "“TOTAL SYNTHESES OF PORTIMINE A AND ANALOGUES THEREOF AS SMALL MOLECULE MODULATORS OF NMD3” (priority 2023, published 2026)",
  "data": [
    {"system": "Jurkat cells", "experiment": "Initial SAR: activity of PAL functionalized PTMA analogs", "assay_type": "cell-based, human", "details": "in the concentrate range", "text": "FIG. 3. Initial SAR studies: Assessing activity of PAL functionalized PTMA analogs. […] (A) PA and Ph-PA show less toxic to healthy PBMCs compared to Jurkat cells. […] (B) Immunoblot of caspase-3 in Jurkat and PBMCs with indicated conditions.\n• 1) Portimine A and its functional analogs show stereo-selective acute toxicity in cancer cells (FIG. 1). […] (B) Structure of portimine related analogs: phenyl-portimine A (Ph-PA, 36) and epi-portimine A (ePA, 38). Structure of fully functionalized portimine A-based epimeric probe pair: portimine A-diazirine-alkyne (PA-DA, 35-2) and epi-portimine A-diazirine-alkyne (ePA-DA, 35-1). (C) Cell viability analysis of portimine A and analogs. Jurkat cells were treated with increasing concentrations of portimine A and analogs for 24 hours. All presented data as mean of biological replicated experiments (n=3). […] Jurkat cells were treated with portimine A or analogs for 12 hours at 10 nM. […] Structurally related negative control ePA and PB are non-toxic in all cell types in the current concentrate range. PBMCs (25k per well), Jurkat (10k per well). […] Cell cycle analysis in Jurkat cells (FIG. 2). Jurkat cells were treated with 10 nM of indicated compounds for 24 hours, and propodium iodide was used to identify different stages of cells by flow cytometry. […] (A) PA and Ph-PA show less toxic to healthy PBMCs compared to Jurkat cells. […] (B) Immunoblot of caspase-3 in Jurkat and PBMCs with indicated conditions. […] (A) Pharmacokinetic studies of mouse intraperitoneal (i.p.) and oral (p.o.) administration for portimine (n=3). […] Impact of PA [0.3 or 1 mg/kg intraperitoneally] on MC38 tumor growth in WT mice (n=6). (C) Kaplan-Myer survival curve of WT MC38 tumor-bearing mice (n=6) after treatment with PA as described in (D). Mice were euthanized when tumor area exceeded 2000 mm^3. Statistical analysis was performed using ANOVA analysis followed by multiple comparisons test, * p≤0.05. Treatment condition: Jurkat (60 M per condition); PA-DA/ePA-DA concentration: 0.5 uM, PA or ePA: 5 uM; Incubate with probe with or without competitors (PA, ePA) for 30 min; UV irradiated for 20 min. (0.5 uM PA-DA add a no-UV condition), Standard pulldown & biotin-enrichment and western blot analysis (Elute condition: 2× sample buffer+500 uM biotin, boil for 20 mins); Primary antibody NMD3 (ProteinTech, 1:150), Actin (BioRad, 1:10000). […] Cell lysates were fractionated by sucrose gradient (5-50%) and each fraction were analyzed by western blot. eIF6 levels increase in 60S subunit fraction and decrease in ribosome-free fractions after PA treatment. […]", "values": [
      {"smiles": "C=CC1=C[C@@H]2[C@@H]3O[C@]4(CC[C@H](O4)C(C)C[C@@H](O)C3=O)C[C@@H](O)C3=NCC[C@@]32CC1", "note": "(stereo partly drawn) [ePA, epi-portimine A]", "activity of PAL functionalized PTMA analogs": "no activity"},
      {"smiles": "C#CCCC1(CCNC(=O)c2ccc(C3=C[C@@H]4[C@@H]5O[C@]6(CC[C@H](O6)C(C)C[C@@H](O)C5=O)C[C@@H](O)C5=NCC[C@@]54CC3)cc2)N=N1", "note": "(stereo partly drawn) [ePA-DA, epi-portimine A-diazirine-alkyne]", "activity of PAL functionalized PTMA analogs": "no activity"},
      {"smiles": "C#CCCC1(CCNC(=O)c2ccc(C3=C[C@@H]4[C@@H]5O[C@]6(CC[C@H](O6)C(C)C[C@@H](O)C5=O)CC(O)C5=NCC[C@@]54CC3)cc2)N=N1", "note": "(stereo partly drawn) [PA-DA, portimine A-diazirine-alkyne]", "activity of PAL functionalized PTMA analogs": "analogous activity to PTMA"}
    ]}
  ]
}
